Where two headings read alike, the source gives them in different places. Blank lines part the entries; values can stand above or below the compound they belong to.
Experiments:
[1] = tested on: Candida albicans, strain DSM 1386; experiment: Anti-mycotic activity assay in pathogen suspension (resazurin fluorescence); type: cell-based
Procedure: (§1) For determining the IC50 of the anti-mycotic activity of compounds, the human pathogen Candida albicans, strain DSM 1386, or clinical isolates of Trichophyton rubrum obtained from patient samples were used.
Candida albicans DSM 1386 was cultivated overnight in medium M186/3 (3.3 % glucose, 0.16 % peptone from soybeans, 0.1% yeast extract, 0.1 % malt extract). Test samples were added in triplicates to a 96-well plate for a final assay concentration of 10 µM and 100 µM of pharmaceutical compounds. 200 µl of the yeast was added to each well after diluting the overnight culture to an optical density (600 nm) of 0.03. […] Handling of the test compounds and well plates took place in a darkened room equipped with red-light LEDs to protect them from green light. Microplates were incubated for 5 h at 28 °C on a shaker at 200 rpm. Subsequently, 10 µl resazurin solution (0.3 mg/ml in phosphate buffer) was added to each well and the microplates were incubated again for 30 min before measuring fluorescence (560/590 nm) using a microplate reader (Tecan Infinite M200, Tecan, Männedorf, Switzerland). Nystatin was used as positive control.

[2] = tested on: Trichophyton rubrum I/95 (patient isolate); experiment: Anti-mycotic activity assay in pathogen suspension (optical density at 600 nm); type: cell-based; conditions: light or radiation study, read-out: Tru IC50 with irradiation
Procedure: as §1
Trichophyton rubrum I/95 (patient isolate) was cultivated for 1 week on GPY (0.1% glucose, 0.05% petone, 0.01 yeast extract, 1.5% agar) at 28°C. A suspension of 5x10^4 spores/ml in M186 (1% glucose, 0.5% peptone from soybeans, 0.3% yeast extract, 0.3% malt extract) was prepared and added to each well of a microplate containing one of the pharmaceutical compounds, which were pipetted in triplicates for a final concentration of […] and 100 µM. The wells were irradiated using the custom-made light source with a peak wavelength of 519 nm. Handling of the test compounds and well plates took place in a darkened room equipped with a red-light LED to protect them from green light. After incubation for 72 h at 28 °C and 120 rpm the optical density at 600 nm was measured using the microplate reader Tecan Infinite M200.

[3] = tested on: Trichophyton rubrum I/95 (patient isolate); experiment: as above; type: cell-based; conditions: light or radiation study; antimycotic activity against Trichophyton rubrum; without irradiation (dark); read-out: Tru IC50 without irradiation
[4] = Migration into hoof plate from lacquer, Raman spectroscopy of cross-sections; type: in vitro ADME, bovine; conditions: 5 days
Procedure: As a further analysis, a bovine hoof plate, 2 mm thickness, was arranged on water-saturated cotton gauze, and pharmaceutical compound was deposited on the opposite surface of the hoof plate. This arrangement was incubated under static conditions at room temperature for 5 days. The pharmaceutical compound was used at 5 wt.-% in a preliminary formulation of 12.5 wt.-% Eudragit RL PO, 60 wt.-% ethanol, 15 wt.-% ethyl acetate, 5 wt.-% butyl acetate, 2.5 wt.-% triacetin, which formulation should mimic the Loceryl lacquer. For comparison, the topic antimycotics amorolfin in Loceryl lacquer and ciclopirox in Ciclopoli were used in parallel.
After the incubation for 5 d, the lacquer compositions were carefully removed and cross-sections from the hoof plates were made. […] This pattern of measurement points, each at a depth greater by 10 µm, up to a depth of at least 100 µm, was used for Raman spectroscopy for presence of pharmaceutical compound.

[5] = tested on: Trichophyton rubrum I/95 (patient isolates); experiment: Anti-mycotic activity assay from nail (infected nail model, cow horn membranes); conditions: for growth of T. rubrum in cow horn membrane: 15 µL/membrane; for diffusion of the compound into the supporting agar: from cow horn membrane, infected nail model
Procedure: For testing the effect of the pharmaceutical compounds in a nail, compounds were applied as a solution of 5 mg/ml or 10 mg/ml in nitrocellulose-based cosmetic nail lacquer, diluted 1: 1 with ethyl acetate, onto cow horn membranes representing nail.
Trichophyton rubrum I/95 (patient isolates) was cultivated for 1-3 weeks on GPY (0.1 % glucose, 0.05 % peptone, 0.01 yeast extract, 1.5 % agar) at 28°C. For the infected nail model, petri dishes with M186 agar (1% glucose, 0.5% peptone from soybeans, 0.3% yeast extract, 0.3% malt extract, 1.5 % agar, supplemented with 100 U/ml penicillin and […]) where inoculated with the pathogen using sterile cotton swabs. Afterwards autoclaved cow horn membranes (in DPBS-buffer solution, 100 µm thick, 8 mm in diameter) where put onto the agar (5 per petri dish) followed by incubation for 48 h at 29 °C. […] The formulations were applied to 15 µL/membrane to the cow horn membranes using an Eppendorf pipette. After incubation for another 24 h four membranes of each type (control, vehicle, 5 mg/ml or 10 mg/ml deoxyshikonin) were transferred onto fresh petri dishes with the surface to which the formulation was applied now facing the agar. […] Afterwards formulations were applied (15 µL/membrane) onto the untreated side of the membranes (facing upwards), they were allowed to dry and were irradiated again for 5 min (2x). The dishes were incubated for 24 h at 29 °C and irradiated again for 5 min (2x). After 7 days of incubation at 29 °C the dishes were evaluated. Anytime handling the compounds and the agar plates after application of the formulations the ambient light was turned off and a red-light LED was used to protect them from any activating light source.

[6] = tested on: C. albicans; experiment: as above; type: cell-based
[7] = Comparison test of antimycotic effect upon irradiation; type: cell-based
[8] = DSM1386, light or radiation study, antimycotic activity against Candida albicans, with irradiation, peak wavelength 519 nm, read-out: Ca IC50 with irradiation
[9] = antimycotic activity against Trichophyton rubrum, with irradiation, peak wavelength 519 nm
[10] = Candida albicans, DSM1386, light or radiation study, antimycotic activity against Candida albicans, with irradiation, peak wavelength 519 nm, read-out: Ca IC50 with irradiation
[11] = antimycotic activity against Candida albicans, with irradiation, peak wavelength 519 nm, read-out: Ca IC50 with irradiation
[12] = 5 wt.-% in preliminary Eudragit RL PO lacquer formulation, bovine hoof plate 2 mm, room temperature, one topical application
[13] = with irradiation at 519 nm, 5 mg/ml or 10 mg/ml in diluted nitrocellulose-based nail lacquer, evaluated after 7 days
[14] = without irradiation, compound in diluted nitrocellulose-based nail lacquer

SMILES: CC(C)=CCCC1=CC(=O)c2c(O)ccc(O)c2C1=O [DOS, Deoxyshikonin]
IC50 [1, 10]: 0.213 ± 0.0547 µM | IC50 [1, 11]: 0.213 ± 0.055 µM | IC50 [2, 9]: 0.0322 ± 0.0174 µM | depth of migration into the keratin cross-section [4, 12]: more than 50 µm | growth of T. rubrum in cow horn membrane [5, 13]: effectively suppressed growth of T. rubrum | growth of T. rubrum in cow horn membrane [5, 14]: reduced compared to both controls but not suppressed

SMILES: NCC(=O)CCC(=O)O [5-amino laevulinic acid]
depth of migration into the keratin cross-section [4, 12]: 30 µm | growth of T. rubrum in cow horn membrane [5, 13]: did not suppress growth | growth of T. rubrum in cow horn membrane [5, 14]: did not suppress growth | growth of C. albicans in cow horn membrane ([6]; with irradiation at 519 nm): did not suppress growth | growth of C. albicans in cow horn membrane ([6]; without irradiation): did not suppress growth

SMILES: CC(C)=CCC(O)C1=CC(=O)c2c(O)ccc(O)c2C1=O (stereo not shown) [Shikonin/ Alkannin]
IC50 [1, 10]: 1.48 µM | IC50 [2, 9]: 0.781 ± 0.407 µM | IC50 [3]: 10.5 ± 6.92 µM

SMILES: CC(C)(C)C1=CC(=O)c2c(O)ccc(O)c2C1=O [BJ-19]
IC50 [1, 8]: 7.65 ± 4.48 µM | IC50 [2, 9]: 0.244 ± 0.192 µM

SMILES: O=C1C=C(O)C(=O)c2ccccc21 [2-hydroxy-1,4-naphthochinone]
antimycotic effect upon irradiation [7]: essentially no antimycotic effect

SMILES: CCC(C)(C)c1ccc(CC(C)CN2C[C@@H](C)O[C@@H](C)C2)cc1 (stereo partly shown) [amorolfin]
depth of migration into the keratin cross-section ([4]; commercial lacquers (amorolfin in Loceryl lacquer, ciclopirox in Ciclopoli), bovine hoof plate 2 mm, room temperature): could not be detected inside the keratin cross-section

SMILES: O=C1C=CC(=O)c2c(O)ccc(O)c21 [Naphthazarin]
IC50 ([1]; Candida albicans, DSM1386, light or radiation study, read-out: Ca IC50 with irradiation): 0.632 ± 0.175 µM | IC50 ([2]; Trichophyton rubrum): 0.353 ± 0.237 µM

SMILES: CC1=CC(=O)c2c(O)ccc(O)c2C1=O [BJ-18]
IC50 [1, 8]: 2.34 ± 0.846 µM | IC50 ([1]; DSM1386, light or radiation study, antimycotic activity against Candida albicans, without irradiation (dark), read-out: Ca IC50 without irradiation): 10.9 ± 4.08 µM | IC50 [2, 9]: 0.0876 ± 0.0654 µM

SMILES: C[C@@H]1[C@H](O)[C@@H](C)/C=C/C=C/CC/C=C/C=C/C=C/C=C/C(O[C@H]2O[C@H](C)[C@@H](O)[C@H](N)[C@@H]2O)CC2O[C@](O)(CC(O)C(O)CCC(O)CC(O)CC(O)CC(=O)O[C@H]1C)CC(O)C2C(=O)O (stereo partly shown) [Nystatin, reference compound]
IC50 [1, 11]: 1.67 ± 0.886 µM | IC50 ([1]; antimycotic activity against Candida albicans, without irradiation (dark), read-out: Ca IC50 without irradiation): 0.692 µM | activity under irradiation compared with no irradiation ([1]; under irradiation, believed to be caused by decomposition under irradiation): lower activity under irradiation

More lines, main results first:

IC50 [1, 8]: 1.48 µM | IC50 [2, 9]: 3.34 µM | IC50 [3]: 8.14 µM
SMILES: CN(C)C1=CC(=O)c2c(O)ccc(O)c2C1=O [BJ-SK-Amin]

IC50 [1, 8]: 0.715 ± 0.209 µM | IC50 [2, 9]: 0.0242 ± 0.0206 µM
SMILES: CCC1=CC(=O)c2c(O)ccc(O)c2C1=O [BJ-34]

IC50 [1, 8]: 2.75 ± 0.07 µM | IC50 [2, 9]: 0.321 ± 0.212 µM
SMILES: CC1=C(C)C(=O)c2c(O)ccc(O)c2C1=O [BJ-27]

IC50 [1, 8]: 0.57 µM | IC50 [2, 9]: 0.352 ± 0.15 µM
SMILES: O=C1C=C(Nc2ccccc2)C(=O)c2c(O)ccc(O)c21 [BJ-49]

IC50 [1, 8]: 1.04 ± 0.185 µM | IC50 [2, 9]: 0.0427 µM
SMILES: CC(C)C1=CC(=O)c2c(O)ccc(O)c2C1=O [BJ-28]

IC50 [1, 8]: 0.556 ± 0.355 µM | IC50 [2, 9]: 0.001 ± 0.0003 µM | depth of migration into the keratin cross-section ([4]; bovine, 5 wt.-%): more than 70 µm
SMILES: CCCCC1=CC(=O)c2c(O)ccc(O)c2C1=O [BJ-36]
diffusion of the compound into the supporting agar [5]: without diffusion of the compound into the supporting agar | growth of T. rubrum in cow horn membrane [5, 13]: effectively eliminated any growth | growth of T. rubrum in cow horn membrane [5, 14]: not effective in suppressing growth | growth of C. albicans in cow horn membrane ([6]; with irradiation at 519 nm): effectively eliminated any growth | growth of C. albicans in cow horn membrane ([6]; without irradiation): not effective in suppressing growth

IC50 [1, 8]: 0.599 ± 0.289 µM | IC50 [2, 9]: 0.013 ± 0.0122 µM
SMILES: CCCC1=CC(=O)c2c(O)ccc(O)c2C1=O [BJ-35]

depth of migration into the keratin cross-section ([4]; bovine, 5 wt.-%): 50 µm
SMILES: CN(C)c1ccc2nc3ccc(=[N+](C)C)cc-3sc2c1 [methylene blue, reference compound]
diffusion of the compound into the supporting agar [5]: diffusion of methylene blue into the supporting agar | growth of T. rubrum in cow horn membrane [5, 13]: did not suppress growth | growth of T. rubrum in cow horn membrane [5, 14]: did not suppress growth | growth of C. albicans in cow horn membrane ([6]; with irradiation at 519 nm): did not suppress growth | growth of C. albicans in cow horn membrane ([6]; without irradiation): did not suppress growth

IC50 [2, 9]: 0.0029 µM
SMILES: O=C1C=C(c2ccccc2)C(=O)c2c(O)ccc(O)c21 [BJ-39]

depth of migration into the keratin cross-section ([4]; bovine): ≤ 40 µm
SMILES: Cc1cc(C2CCCCC2)n(O)c(=O)c1 [ciclopirox]
